Values joined by “and” are separate entries in the source; they are usually repeats but may differ in a detail not shown here. Equal entries are not always repeated. Where two headings read alike, the source gives them in different places.
B1: Actimmune: Actimmune® (IFN-γ; Interferon gamma-1b), 100 μg/0.5 mL vial diluted 1:1400 (protein, UniProt P01579 24-161, looked up)
Interferon gamma: QDPYVKEAENLKKYFNAGHSDVADNGTLFLGILKNWKEESDRKIMQSQIVSFYFKLFKNFKDDQSIQKSVETIKEDMNVKFFNSNKKKRDDFEKLTNYSVTDLNVQRKAIHELIQVMAELSPAAKTGKRKRSQMLFRG

Tests used:
[1] = Plasma and lung drug levels in mice after MicroSprayer endotracheal delivery (LC/MS/MS); settings: for concentration at 1 h / concentration at 8 h: female, C57BL/6, mouse; for Lung levels compared to plasma levels / Plasma and lung levels 8 hours post dose compared to 1 hour post dose: endotracheal delivery; for Lung Levels: 8 hour (Range): Table 14 summary, dose delivered 240/150/50 μg in 100 μL
Procedure: Observations were taken at 1 and 8 hour time points within lung tissue as well as the plasma of individual animals.
For microsprayer dosing via endotracheal administration, mice were anesthetized by Ketamine/Xylazine (K/X) sedation (50 mg/kg Ketamine and 5 mg/kg Xylazine) administered intraperitoneally (IP). […] A Bair Hugger warm air unit was used to keep animals warm during recovery from K/X anesthesia (i.e. after dosing).
On Day 0, mice were endotracheally intubated with a MicroSprayer® Aerosolizer (Penn-Century™, Inc.; Wyndmoor, Pa.) and test articles were delivered in the airways at a dose volume of 100 μL/dose at various dose levels.
Animals were used for collection of blood samples and the entire lung for plasma and drug level determinations. Each mouse was anesthetized with CO2/O2 and terminally bled via retro-orbital into tubes containing K2EDTA. Upon collection each blood sample was mixed by gentle inversion, placed on ice, and subsequently centrifuged to separate plasma. Plasma samples were processed on the day they were collected, or were snap frozen using liquid nitrogen and stored frozen (at or below −70° C.) until analyzed.
Animals in Subgroup A were used for collection of blood samples for plasma drug level determinations at the 1 hour post dose time point following Day 0 dosing; samples were collected within ±3% of target time. Animals in Subgroup B were used for collection of blood samples for plasma drug level determinations at the 8 hour post dose time point following Day 0 dosing; samples were collected within ±3% of target time (Table 8).
Immediately following each subgroups blood collection time point, each animal was euthanized using CO2 and the entire lung was collected for tissue drug level determinations (within 15 minutes after the blood sample), weighed, and snap-frozen. Lung samples were snap frozen using liquid nitrogen or dry ice and stored frozen (at or below −70° C.) until analyzed. […] Animals in Groups 1-3 had aerosol content (ng/mL), plasma content (ng/mL) and lung level (ng/g) assessed for parent using an appropriate LC/MS/MS method.

[2] = assay type: in vivo, female C57BL/6 mice; settings: number of animals
Procedure: Detailed observations were recorded prior to dosing and prior to euthanasia.
All animals survived to their scheduled euthanasia time point on Day 0 (1 hour or 8 hours post dosing). All animals were normal (no clinical abnormalities) prior to dosing on Day 0 and prior to euthanasia 1 hour or 8 hours post dosing.

[3] = NGI impactor test of nebulized respiratory solutions (aerosol particle size); assay type: physicochemical; settings: fractions by HPLC
Procedure: FIG. 1. Graphical representation of the NGI impactor test for Metronidazole respiratory solution (8 mg/mL).
FIG. 2. Graphical representation of the NGI impactor test for Amikacin respiratory solution (200 mg/mL).
FIG. 3. Graphical representation of the NGI impactor test for Levofloxacin respiratory solution (250 mg/mL).
The nebulization drug formulations were nebulized and passed through an NGI impactor (Westech Corporation). These experiments show the fraction of drug in various stages of the impactor (FIGS. 1-3). It was shown that significant amounts of the drug compounds were obtained at the different stages, which corresponds to the respirable fraction that would be deposited in the lungs. The drug fractions were analyzed by HPLC.

[4] = tested on: TB (Mycobacterium tuberculosis); settings: reported for reference only; metronidazole MIC not established for TB; cited from earlier work
[5] = Human IFN-γ levels in mouse lung and plasma after aerosol delivery (ELISA); assay type: in vivo, female C57BL/6 mice; settings: for IFN-g Level in mouse plasma: plasma diluted 1:2, ELISA sensitivity <2 pg/mL; for IFN-g Level in lung homogenate: mouse lung homogenized in 10 mL buffer; for IFN-g Level in lung homogenate / ng of IFN-g per gm of tissue: individual animals; for ng of IFN-g per gm of tissue / ng of IFN-g per gm of tissue, Mean: mouse lung; for ng of IFN-g per gm of tissue, Mean: mean of 3
Procedure: Actimmune® (IFN-γ; Interferon gamma-1b) was diluted in the dilution solution excipient as per manufacturer's directions. The contents of one (1) vial (100 μg/0.5 mL) were gently diluted to a final volume of 700 mL using the dilution solution excipient. This represented a 1:1400 dilution. Test articles A-C were supplied in a ready to use form and no additional formulations were required. All residual test articles were stored at room temperature (15-30° C.) or refrigerated (2-8° C.).

[6] = lung, Lung levels 1 hour post dose (range), mice, endotracheal MicroSprayer, Subgroup A
[7] = lung, Lung levels 8 hour post dose (range), mice, endotracheal MicroSprayer, Subgroup B
[8] = plasma, Plasma levels 1 hour post dose (range), mice, endotracheal MicroSprayer, Subgroup A, 3 animals
[9] = plasma, Plasma levels 8 hour post dose (range), mice, endotracheal MicroSprayer, Subgroup B, 3 animals
[10] = mice, IT, 1 hr, individual animals
[11] = mice, IT, 1 hr, individual animals, nominal dose 0.48/0.3/0.1 mg/animal (delivered about 50%)
[12] = mice, IT, 8 hr, individual animals
[13] = mice, IT, 8 hr, individual animals, nominal dose 0.48/0.3/0.1 mg/animal
[14] = lung, Lung Concentration (μg/g) of Tissue, mice, IT, 1 hr, individual animals
[15] = lung, Lung Concentration, mice, IT, 1 hr, individual animals
[16] = plasma, Plasma Concentration, mice, IT, 1 hr, individual animals, nominal dose 0.48/0.3/0.1 mg/animal (delivered about 50%)
[17] = plasma, Plasma Concentration, mice, IT, 8 hr, individual animals, nominal dose 0.48/0.3/0.1 mg/animal
[18] = mice, endotracheal MicroSprayer, Subgroup B, 3 animals

Molecule | concentration at 1 h [1, 6] | concentration at 8 h [1, 7] | concentration at 1 h [1, 8] | concentration at 8 h [1, 9] | Lung Concentration [1, 10] | Lung Concentration (μg/g) of Tissue [1, 10] | Plasma Concentration [1, 11] | Lung Concentration [1, 12] | Plasma Concentration [1, 13] | Lung levels compared to plasma levels ([1]; mice) | Plasma and lung levels 8 hours post dose compared to 1 hour post dose ([1]; mice) | ANIMALS ALIVE ([2]; Day 0, 1 hr post dose) | ANIMALS NORMAL ([2]; Day 0, 1 hr post dose) | ANIMALS ALIVE ([2]; Day 0, 8 hr post dose) | ANIMALS NORMAL ([2]; Day 0, 8 hr post dose) | Droplets produced on nebulization [3] | Reported MIC [4] | Lung Levels: 8 hour (Range) [1] | concentration at 1 h [1, 14] | concentration at 1 h [1, 15] | also measured
NCC[C@H](O)C(=O)N[C@@H]1C[C@H](N)[C@@H](O[C@H]2O[C@H](CN)[C@@H](O)[C@H](O)[C@H]2O)[C@H](O)[C@H]1O[C@H]1O[C@H](CO)[C@@H](O)[C@H](N)[C@H]1O [Amikacin] | 3990 to 9480 ng/g | 351 to 3060 ng/g | 2300 to 7140 ng/mL | 152 to 406 ng/mL | 4830 ng/g and 9480 ng/g and 3990 ng/g | 33.6 µg/g and 64.9 µg/g and 27.0 µg/g | 7140 ng/mL and 4820 ng/mL and 2300 ng/mL | 3060 ng/g and 443 ng/g and 351 ng/g | 406 ng/mL and 156 ng/mL and 152 ng/mL | higher | decreased | 6 | 3 | 3 | 3 | droplets in the respirable range | 0.5 μg/mL (500 ng/mL) | – | – | – | Lung Concentration (μg/g) of Tissue [1, 12]: 19.0 µg/g and 3.05 µg/g and 1.99 µg/g
C[C@H]1COc2c(N3CCN(C)CC3)c(F)cc3c(=O)c(C(=O)O)cn1c23 [Levofloxacin] | 1610 to 2270 ng/g | 1200 ng/g | 534 to 815 ng/mL | 53 ng/mL | 2270 ng/g and 1610 ng/g | 16.9 µg/g and 10.4 µg/g | 815 ng/mL and 534 ng/mL | BQL | BQL | increased | decreased | 6 | 3 | 3 | 3 | – | – | 7590 ng/g - ng/g of lung tissue | 13800 ng/g | 2140 ng/g | concentration at 8 h ([1]; lung, Lung Concentration (μg/g) of Tissue, mice, IT, 8 hr, individual animals): 7560 ng/g; concentration at 8 h ([1]; lung, Lung Concentration, mice, IT, 8 hr, individual animals): 1200 ng/g; concentration at 1 h [1, 16]: 556 ng/mL; concentration at 8 h [1, 17]: 53 ng/mL; Plasma levels 8 hour post dose (range) [1, 18]: 53.0 ng/mL; Plasma levels 8 hour post dose (range) ([1]; mice, endotracheal MicroSprayer, Subgroup B, 3 animals, listed as LEVOFLOXACIN): 53 ng/mL -
Cc1ncc([N+](=O)[O-])n1CCO [Metronidazole] | 1070 to 1640 ng/g | – | 1670 to 2290 ng/mL | 42.3 ng/mL | 1070 ng/g and 1270 ng/g | 6.50 µg/g and 8.27 µg/g | 1670 ng/mL and 1880 ng/mL | BQL | BQL | increased | decreased | 6 | 3 | 3 | 3 | droplets in the respirable range | 250 μg/mL in (250,000 ng/mL) | Not detected | 11700 ng/g | 1640 ng/g | concentration at 1 h [1, 16]: 2290 ng/mL; concentration at 8 h [1, 17]: 42.3 ng/mL; Lung levels 8 hour post dose (range) ([1]; mice, endotracheal MicroSprayer, Subgroup B): not detectable; Plasma levels 8 hour post dose (range) [1, 18]: 42.3 ng/mL -
B1 | – | – | – | – | – | – | – | – | – | – | – | 6 | 3 | 3 | 3 | – | – | – | – | – | IFN-g Level in mouse plasma ([5]; 1 hr post dose): not detectable and below detectable levels (BDL) and BDL^a and BDL; IFN-g Level in mouse plasma ([5]; 1 hr post dose, listed as INTERFERON-gamma): Not Detectable; IFN-g Level in mouse plasma ([5]; 8 hr post dose): not detectable and below detectable levels (BDL) and BDL; IFN-g Level in mouse plasma ([5]; 8 hr post dose, listed as INTERFERON-gamma): Not Detectable; Plasma and lung levels 8 hours post dose compared to 1 hour post dose ([5]; mice, endotracheal delivery): decreased; IFN-g Level in lung homogenate ([5]; 1 hr post dose): 1732.7 pg/mL and 1248.4 pg/mL and 1109.4 pg/mL; IFN-g Level in lung homogenate ([5]; 8 hr post dose): 1006.2 pg/mL and 1578.0 pg/mL and 1307.7 pg/mL; ng of IFN-g per gm of tissue ([5]; 1 hr post dose): 116.8 ng per gm of tissue and 87.9 ng per gm of tissue and 75.4 ng per gm of tissue; ng of IFN-g per gm of tissue, Mean ([5]; 1 hr post dose): 93.3 ng per gm of tissue; ng of IFN-g per gm of tissue ([5]; 8 hr post dose): 58.3 ng per gm of tissue and 72.2 ng per gm of tissue and 102.6 ng per gm of tissue; ng of IFN-g per gm of tissue, Mean ([5]; 8 hr post dose): 77.7 ng per gm of tissue
